Test results published in ChEMBL document CHEMBL1201862, “PubChem BioAssay data set” (2004).
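Exposure lasted 48 hours, with cells grown in 96-well plates and compounds tested at five concentrations. GI50 = concentration required for 50% inhibition of growth.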 Calls of active or inactive are those of the source. Rule as the data show it: active = GI50 up to about 1.1 µM and inactive = higher.

What was measured:
Experiment in all cases: NCI-60 cell line screen, 48 h
HCC 2998 = test system: HCC 2998
LXFL 529 = test system: LXFL 529
RXF 393 = test system: RXF 393
CCRF-CEM = test system: CCRF-CEM
RXF 631 = test system: RXF 631
KM12 = test system: KM12
A549 = test system: A549
SW-620 = test system: SW-620
UACC-257 = test system: UACC-257
SNB-19 = test system: SNB-19
SN12C = test system: SN12C
M19-MEL = test system: M19-MEL
NCI-H460 = test system: NCI-H460
UACC-62 = test system: UACC-62
Malme-3M = test system: Malme-3M
SF-268 = test system: SF-268
SNB-75 = test system: SNB-75
SNB-78 = test system: SNB-78
UO-31 = test system: UO-31
SK-MEL-2 = test system: SK-MEL-2
EKVX = test system: EKVX
NCI-H522 = test system: NCI-H522
ACHN = test system: ACHN
XF498 = test system: XF498
DLD-1 = test system: DLD-1
OVCAR-3 = test system: OVCAR-3
DMS-273 = test system: DMS-273
K562 = test system: K562
LOX IMVI = test system: LOX IMVI
RPMI-8226 = test system: RPMI-8226
HCT-116 = test system: HCT-116
IGROV-1 = test system: IGROV-1
HOP-62 = test system: HOP-62
SF-539 = test system: SF-539
HL-60 = test system: HL-60
SK-MEL-28 = test system: SK-MEL-28
SK-OV-3 = test system: SK-OV-3
MOLT-4 = test system: MOLT-4
NCI-H23 = test system: NCI-H23
786-0 = test system: 786-0
SK-MEL-5 = test system: SK-MEL-5
OVCAR-5 = test system: OVCAR-5
CAKI-1 = test system: CAKI-1
HCT-15 = test system: HCT-15
A498 = test system: A498
DMS-114 = test system: DMS-114
COLO 205 = test system: COLO 205
SF-295 = test system: SF-295
TK-10 = test system: TK-10
OVCAR-8 = test system: OVCAR-8
OVCAR-4 = test system: OVCAR-4
U-251 = test system: U-251

With `O=C1CC2CCCCC2=C1O` (configuration not stated) as the molecule, how does the GI50 (HCC 2998) read?
Its GI50 is > 100 µM (inactive).

And the GI50 (LXFL 529)?
The GI50 was > 100 µM (inactive).

And the GI50 (RXF 393)?
Its GI50 is > 100 µM (inactive).

What about the GI50 (CCRF-CEM) of the same molecule?
Its GI50 is > 100 µM (inactive).

What about the GI50 (RXF 631) of the same molecule?
The GI50 was > 100 µM (inactive).

What about the GI50 (KM12) of the same molecule?
Its GI50 is > 100 µM (inactive).

And the GI50 (A549)?
Its GI50 is > 100 µM (inactive).

What about the GI50 (SW-620) of the same molecule?
Its GI50 is > 100 µM (inactive).

And the GI50 (UACC-257)?
The GI50 was > 100 µM (inactive).

What about the GI50 (SNB-19) of the same molecule?
The GI50 was > 100 µM (inactive).

And the GI50 (SN12C)?
Its GI50 is > 100 µM (inactive).

What about the GI50 (M19-MEL) of the same molecule?
Its GI50 is > 100 µM (inactive).

What about the GI50 (NCI-H460) of the same molecule?
The GI50 was > 100 µM (inactive).

And the GI50 (UACC-62)?
The GI50 was > 100 µM (inactive).

What about the GI50 (Malme-3M) of the same molecule?
The GI50 was > 100 µM (inactive).

What about the GI50 (SF-268) of the same molecule?
Its GI50 is > 100 µM (inactive).

And the GI50 (SNB-75)?
The GI50 was > 100 µM (inactive).

And the GI50 (SNB-78)?
Its GI50 is > 100 µM (inactive).

And the GI50 (UO-31)?
The GI50 was > 100 µM (inactive).

And the GI50 (SK-MEL-2)?
Its GI50 is > 100 µM (inactive).

And the GI50 (EKVX)?
Its GI50 is > 100 µM (inactive).

And the GI50 (NCI-H522)?
The GI50 was > 100 µM (inactive).

And the GI50 (ACHN)?
Its GI50 is > 100 µM (inactive).

And the GI50 (XF498)?
Its GI50 is > 100 µM (inactive).

What about the GI50 (DLD-1) of the same molecule?
The GI50 was > 100 µM (inactive).

What about the GI50 (OVCAR-3) of the same molecule?
Its GI50 is > 100 µM (inactive).

What about the GI50 (DMS-273) of the same molecule?
Its GI50 is > 100 µM (inactive).

And the GI50 (K562)?
The GI50 was > 100 µM (inactive).

What about the GI50 (LOX IMVI) of the same molecule?
The GI50 was > 100 µM (inactive).

What about the GI50 (RPMI-8226) of the same molecule?
Its GI50 is > 100 µM (inactive).

What about the GI50 (HCT-116) of the same molecule?
Its GI50 is > 100 µM (inactive).

And the GI50 (IGROV-1)?
Its GI50 is > 100 µM (inactive).

And the GI50 (HOP-62)?
The GI50 was > 100 µM (inactive).

And the GI50 (SF-539)?
The GI50 was > 100 µM (inactive).

And the GI50 (HL-60)?
Its GI50 is > 100 µM (inactive).

And the GI50 (SK-MEL-28)?
Its GI50 is > 100 µM (inactive).

What about the GI50 (SK-OV-3) of the same molecule?
The GI50 was > 100 µM (inactive).

What about the GI50 (MOLT-4) of the same molecule?
Its GI50 is > 100 µM (inactive).

And the GI50 (NCI-H23)?
Its GI50 is > 100 µM (inactive).

What about the GI50 (786-0) of the same molecule?
Its GI50 is > 100 µM (inactive).

And the GI50 (SK-MEL-5)?
Its GI50 is > 100 µM (inactive).

And the GI50 (OVCAR-5)?
Its GI50 is > 100 µM (inactive).

And the GI50 (CAKI-1)?
The GI50 was > 100 µM (inactive).

And the GI50 (HCT-15)?
Its GI50 is over 100 µM.

What about the GI50 (A498) of the same molecule?
Its GI50 is > 100 µM (inactive).

And the GI50 (DMS-114)?
Its GI50 is > 100 µM (inactive).

And the GI50 (COLO 205)?
The GI50 was > 100 µM (inactive).

And the GI50 (SF-295)?
The GI50 was > 100 µM (inactive).

What about the GI50 (TK-10) of the same molecule?
The GI50 was > 100 µM (inactive).

And the GI50 (OVCAR-8)?
Its GI50 is > 100 µM (inactive).

And the GI50 (OVCAR-4)?
The GI50 was > 100 µM (inactive).

What about the GI50 (U-251) of the same molecule?
Its GI50 is > 100 µM (inactive).
